Laboratory results taken from ChEMBL document CHEMBL5715954, “Silencing c-Myc translation as a therapeutic strategy through targeting PI3Kδ and CK1ε in hematological malignancies” (Blood, 2017).

What was measured:
Parameters in all cases: scale not given: the % may be the effect or the level left
[1] = target: CDK3/Cyclin E (Homo sapiens) (UniProt P24864+Q00526); experiment: Inhibition of human CDK3/cyclin E assessed as enzyme activity at 1 uM using RB Protein as substrate preincubated for 20 mins followed by [gamma-33P]-ATP addition and measured after 120 mins by radiometric Hot-SpotSM Kinase assay relative to control; format: protein-complex assay
Chain of CDK3/Cyclin E (Homo sapiens) (P24864 whole entry, looked up): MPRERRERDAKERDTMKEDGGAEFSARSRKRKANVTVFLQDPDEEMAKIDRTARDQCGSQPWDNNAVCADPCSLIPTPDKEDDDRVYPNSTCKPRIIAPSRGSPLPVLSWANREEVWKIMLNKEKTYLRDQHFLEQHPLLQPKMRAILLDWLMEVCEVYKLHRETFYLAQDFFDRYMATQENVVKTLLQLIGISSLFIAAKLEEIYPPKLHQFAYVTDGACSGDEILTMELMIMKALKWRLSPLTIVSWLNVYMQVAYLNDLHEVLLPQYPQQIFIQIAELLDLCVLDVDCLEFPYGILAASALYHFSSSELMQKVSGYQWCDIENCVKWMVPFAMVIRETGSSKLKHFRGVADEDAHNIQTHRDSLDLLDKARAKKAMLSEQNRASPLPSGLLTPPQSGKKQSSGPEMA
Chain of CDK3/Cyclin E (Homo sapiens) (Q00526 whole entry, looked up): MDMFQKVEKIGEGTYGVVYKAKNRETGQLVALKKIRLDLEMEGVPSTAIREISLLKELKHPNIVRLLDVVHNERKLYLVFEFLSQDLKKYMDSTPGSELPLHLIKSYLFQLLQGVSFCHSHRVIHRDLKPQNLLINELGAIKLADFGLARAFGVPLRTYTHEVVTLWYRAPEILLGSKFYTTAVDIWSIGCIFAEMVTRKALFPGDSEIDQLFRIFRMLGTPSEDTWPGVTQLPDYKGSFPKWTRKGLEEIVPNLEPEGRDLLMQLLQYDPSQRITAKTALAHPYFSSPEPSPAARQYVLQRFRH

[2] = target: T1, Ephrin type-A receptor 1 (Homo sapiens) (UniProt P21709); experiment: Inhibition of human EPHA1 assessed as enzyme activity at 1 uM using poly[Glu:Tyr] (4:1) as substrate preincubated for 20 mins followed by [gamma-33P]-ATP addition and measured after 120 mins by radiometric Hot-SpotSM Kinase assay relative to control
T1 sequence (whole entry): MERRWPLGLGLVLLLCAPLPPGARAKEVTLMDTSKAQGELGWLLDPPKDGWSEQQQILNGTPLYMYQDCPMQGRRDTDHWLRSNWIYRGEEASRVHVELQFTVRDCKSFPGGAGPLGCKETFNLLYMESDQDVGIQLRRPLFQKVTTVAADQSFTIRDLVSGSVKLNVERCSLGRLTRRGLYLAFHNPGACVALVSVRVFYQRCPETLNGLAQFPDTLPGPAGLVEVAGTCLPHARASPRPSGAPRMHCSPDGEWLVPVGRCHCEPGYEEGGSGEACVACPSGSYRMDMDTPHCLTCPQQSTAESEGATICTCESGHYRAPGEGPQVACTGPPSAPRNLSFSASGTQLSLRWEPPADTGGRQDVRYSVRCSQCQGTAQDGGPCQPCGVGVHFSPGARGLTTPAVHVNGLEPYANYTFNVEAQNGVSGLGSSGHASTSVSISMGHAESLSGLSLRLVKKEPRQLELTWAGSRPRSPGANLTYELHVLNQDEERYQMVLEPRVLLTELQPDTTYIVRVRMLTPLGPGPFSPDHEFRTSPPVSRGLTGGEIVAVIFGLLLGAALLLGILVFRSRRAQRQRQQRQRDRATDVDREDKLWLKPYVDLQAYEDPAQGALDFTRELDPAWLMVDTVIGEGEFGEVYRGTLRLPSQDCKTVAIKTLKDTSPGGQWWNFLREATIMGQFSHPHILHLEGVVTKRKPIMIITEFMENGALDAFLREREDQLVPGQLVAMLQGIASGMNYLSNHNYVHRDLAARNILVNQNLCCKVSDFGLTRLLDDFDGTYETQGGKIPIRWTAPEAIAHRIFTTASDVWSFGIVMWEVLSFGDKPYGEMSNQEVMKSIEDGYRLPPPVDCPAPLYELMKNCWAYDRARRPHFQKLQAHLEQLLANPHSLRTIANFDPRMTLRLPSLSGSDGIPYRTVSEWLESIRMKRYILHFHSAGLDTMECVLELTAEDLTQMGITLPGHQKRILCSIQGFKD

[3] = target: T2, Ephrin type-A receptor 6 (Homo sapiens) (UniProt Q9UF33); experiment: Inhibition of human EPHA6 assessed as enzyme activity at 1 uM using poly[Glu:Tyr] (4:1) as substrate preincubated for 20 mins followed by [gamma-33P]-ATP addition and measured after 120 mins by radiometric Hot-SpotSM Kinase assay relative to control
T2 sequence (whole entry): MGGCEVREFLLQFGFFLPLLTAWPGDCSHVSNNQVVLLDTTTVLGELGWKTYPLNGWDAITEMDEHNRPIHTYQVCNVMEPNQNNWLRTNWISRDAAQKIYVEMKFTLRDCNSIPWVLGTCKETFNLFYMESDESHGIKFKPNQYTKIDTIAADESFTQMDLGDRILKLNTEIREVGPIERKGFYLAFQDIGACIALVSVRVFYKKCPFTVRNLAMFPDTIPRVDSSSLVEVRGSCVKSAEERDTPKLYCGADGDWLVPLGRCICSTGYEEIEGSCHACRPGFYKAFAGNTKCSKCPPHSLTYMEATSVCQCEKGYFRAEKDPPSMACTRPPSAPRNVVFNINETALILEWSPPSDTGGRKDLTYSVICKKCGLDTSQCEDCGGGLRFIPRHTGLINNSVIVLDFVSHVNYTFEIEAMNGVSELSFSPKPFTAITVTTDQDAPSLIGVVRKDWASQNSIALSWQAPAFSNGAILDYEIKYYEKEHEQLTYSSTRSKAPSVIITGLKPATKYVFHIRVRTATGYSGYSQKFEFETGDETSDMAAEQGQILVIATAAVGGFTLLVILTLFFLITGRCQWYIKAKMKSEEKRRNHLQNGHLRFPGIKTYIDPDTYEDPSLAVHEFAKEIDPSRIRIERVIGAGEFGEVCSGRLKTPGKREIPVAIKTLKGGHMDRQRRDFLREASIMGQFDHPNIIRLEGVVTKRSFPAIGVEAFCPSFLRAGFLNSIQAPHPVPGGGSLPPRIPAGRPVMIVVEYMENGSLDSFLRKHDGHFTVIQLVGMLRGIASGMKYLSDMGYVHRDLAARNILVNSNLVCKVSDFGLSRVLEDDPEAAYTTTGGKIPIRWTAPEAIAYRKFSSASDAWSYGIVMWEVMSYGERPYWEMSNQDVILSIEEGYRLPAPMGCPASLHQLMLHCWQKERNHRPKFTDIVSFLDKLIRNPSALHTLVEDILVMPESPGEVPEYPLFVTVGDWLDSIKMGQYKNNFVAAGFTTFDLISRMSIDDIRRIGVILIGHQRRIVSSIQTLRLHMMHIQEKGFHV

[4] = target: T3, Dual specificity mitogen-activated protein kinase kinase 5 (Homo sapiens) (UniProt Q13163); experiment: Inhibition of human MEK5 assessed as enzyme activity at 1 uM using ERK5 (K84R) as substrate preincubated for 20 mins followed by [gamma-33P]-ATP addition and measured after 120 mins by radiometric Hot-SpotSM Kinase assay relative to control
T3 sequence (whole entry): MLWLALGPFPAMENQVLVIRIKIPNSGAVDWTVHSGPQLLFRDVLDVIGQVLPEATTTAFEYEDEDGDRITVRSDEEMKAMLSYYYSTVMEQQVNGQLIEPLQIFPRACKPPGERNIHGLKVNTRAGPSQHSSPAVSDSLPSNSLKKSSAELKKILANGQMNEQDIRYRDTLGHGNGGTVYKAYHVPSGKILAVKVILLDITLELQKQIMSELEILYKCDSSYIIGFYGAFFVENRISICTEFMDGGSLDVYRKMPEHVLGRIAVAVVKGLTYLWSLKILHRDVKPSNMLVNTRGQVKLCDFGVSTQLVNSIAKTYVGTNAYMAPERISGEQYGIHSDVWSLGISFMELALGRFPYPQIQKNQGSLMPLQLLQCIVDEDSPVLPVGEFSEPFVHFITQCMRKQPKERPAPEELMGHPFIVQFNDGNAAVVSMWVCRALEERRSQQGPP

[5] = target: Citron Rho-interacting kinase (Homo sapiens) (UniProt O14578); experiment: Inhibition of human STK21 assessed as enzyme activity at 1 uM using KKRPQRRYSNVF as substrate preincubated for 20 mins followed by [gamma-33P]-ATP addition and measured after 120 mins by radiometric Hot-SpotSM Kinase assay relative to control
Chain of Citron Rho-interacting kinase (Homo sapiens) (O14578 whole entry): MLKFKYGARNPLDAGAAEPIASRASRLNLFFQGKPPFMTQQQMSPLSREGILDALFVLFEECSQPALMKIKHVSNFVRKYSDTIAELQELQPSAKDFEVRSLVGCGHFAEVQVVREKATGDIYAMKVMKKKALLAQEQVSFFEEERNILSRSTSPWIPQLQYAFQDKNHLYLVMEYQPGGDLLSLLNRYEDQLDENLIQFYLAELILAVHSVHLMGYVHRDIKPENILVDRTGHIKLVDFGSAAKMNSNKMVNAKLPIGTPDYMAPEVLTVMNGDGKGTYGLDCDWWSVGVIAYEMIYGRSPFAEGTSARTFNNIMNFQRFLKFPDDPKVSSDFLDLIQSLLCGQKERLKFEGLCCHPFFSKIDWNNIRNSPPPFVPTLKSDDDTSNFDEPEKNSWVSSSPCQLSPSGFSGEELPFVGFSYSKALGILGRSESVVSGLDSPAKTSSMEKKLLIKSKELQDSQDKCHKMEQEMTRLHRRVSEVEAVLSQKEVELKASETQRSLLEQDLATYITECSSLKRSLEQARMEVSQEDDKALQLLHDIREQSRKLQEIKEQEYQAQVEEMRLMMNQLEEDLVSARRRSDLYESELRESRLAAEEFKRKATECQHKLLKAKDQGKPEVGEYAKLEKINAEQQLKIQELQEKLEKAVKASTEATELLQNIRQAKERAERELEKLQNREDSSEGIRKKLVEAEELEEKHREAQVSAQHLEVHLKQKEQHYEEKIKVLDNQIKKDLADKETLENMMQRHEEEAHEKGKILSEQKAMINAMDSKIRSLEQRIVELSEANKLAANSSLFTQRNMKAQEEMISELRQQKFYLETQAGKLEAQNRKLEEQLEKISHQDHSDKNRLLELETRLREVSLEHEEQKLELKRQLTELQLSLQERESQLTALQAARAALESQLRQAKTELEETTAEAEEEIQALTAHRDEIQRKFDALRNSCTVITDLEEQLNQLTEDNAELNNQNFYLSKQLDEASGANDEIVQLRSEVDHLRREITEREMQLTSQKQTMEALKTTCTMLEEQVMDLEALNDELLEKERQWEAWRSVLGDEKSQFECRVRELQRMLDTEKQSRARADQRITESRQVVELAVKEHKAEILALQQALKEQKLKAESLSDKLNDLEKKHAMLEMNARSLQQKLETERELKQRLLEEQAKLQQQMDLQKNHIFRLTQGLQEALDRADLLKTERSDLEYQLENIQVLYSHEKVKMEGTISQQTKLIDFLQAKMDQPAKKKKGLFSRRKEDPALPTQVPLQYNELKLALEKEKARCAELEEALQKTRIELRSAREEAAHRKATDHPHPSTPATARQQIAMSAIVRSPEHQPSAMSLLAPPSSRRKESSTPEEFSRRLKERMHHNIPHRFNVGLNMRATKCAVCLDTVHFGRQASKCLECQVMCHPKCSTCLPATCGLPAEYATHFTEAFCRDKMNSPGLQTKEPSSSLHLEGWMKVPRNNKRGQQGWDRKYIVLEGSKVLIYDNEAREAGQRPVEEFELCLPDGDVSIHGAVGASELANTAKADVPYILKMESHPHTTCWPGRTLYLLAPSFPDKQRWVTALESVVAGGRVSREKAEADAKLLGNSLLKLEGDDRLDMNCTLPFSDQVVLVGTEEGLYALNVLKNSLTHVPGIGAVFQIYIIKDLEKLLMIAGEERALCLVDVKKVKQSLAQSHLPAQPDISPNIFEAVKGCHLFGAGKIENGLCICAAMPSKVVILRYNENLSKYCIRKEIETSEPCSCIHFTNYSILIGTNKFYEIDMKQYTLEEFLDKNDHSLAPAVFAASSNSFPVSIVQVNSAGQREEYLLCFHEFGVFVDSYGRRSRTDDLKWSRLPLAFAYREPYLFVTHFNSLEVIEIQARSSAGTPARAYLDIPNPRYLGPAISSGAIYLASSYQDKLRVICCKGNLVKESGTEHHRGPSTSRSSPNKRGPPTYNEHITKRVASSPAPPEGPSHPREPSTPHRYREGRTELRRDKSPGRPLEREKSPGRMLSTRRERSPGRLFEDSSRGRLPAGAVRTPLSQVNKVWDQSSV

Row | Compound | Activity [1] [%] | Activity [2] [%] | Activity [3] [%] | Activity [4] [%] | Activity [5] [%]
1 | CC[C@H](Nc1ncnc2[nH]cnc12)c1nc2cccc(F)c2c(=O)n1-c1ccccc1 | 86.8 | 91.4 | 87.7 | 104 | 101
2 | C[C@H](Nc1ncnc2nc[nH]c12)c1cc2cccc(Cl)c2c(=O)n1-c1ccccc1 | 88 | 95.2 | 86.9 | 105 | 93.5
3 | CC(C)Oc1ccc(-c2nn([C@@H](C)c3oc4ccc(F)cc4c(=O)c3-c3cccc(F)c3)c3ncnc(N)c23)cc1F [UMBRALISIB] | 84.3 | 96.4 | 81.3 | 102 | 113
